Assays:
Histamine H3 receptor = Histamine H3 receptor (Homo sapiens, UniProt Q9Y5N1)
D(3) dopamine receptor = D(3) dopamine receptor (Homo sapiens, UniProt P35462)
[1] = molecular target: T1, Prostaglandin G/H synthase 1 (Rattus norvegicus, UniProt Q63921); type: functional
T1 sequence (Q63921 whole entry): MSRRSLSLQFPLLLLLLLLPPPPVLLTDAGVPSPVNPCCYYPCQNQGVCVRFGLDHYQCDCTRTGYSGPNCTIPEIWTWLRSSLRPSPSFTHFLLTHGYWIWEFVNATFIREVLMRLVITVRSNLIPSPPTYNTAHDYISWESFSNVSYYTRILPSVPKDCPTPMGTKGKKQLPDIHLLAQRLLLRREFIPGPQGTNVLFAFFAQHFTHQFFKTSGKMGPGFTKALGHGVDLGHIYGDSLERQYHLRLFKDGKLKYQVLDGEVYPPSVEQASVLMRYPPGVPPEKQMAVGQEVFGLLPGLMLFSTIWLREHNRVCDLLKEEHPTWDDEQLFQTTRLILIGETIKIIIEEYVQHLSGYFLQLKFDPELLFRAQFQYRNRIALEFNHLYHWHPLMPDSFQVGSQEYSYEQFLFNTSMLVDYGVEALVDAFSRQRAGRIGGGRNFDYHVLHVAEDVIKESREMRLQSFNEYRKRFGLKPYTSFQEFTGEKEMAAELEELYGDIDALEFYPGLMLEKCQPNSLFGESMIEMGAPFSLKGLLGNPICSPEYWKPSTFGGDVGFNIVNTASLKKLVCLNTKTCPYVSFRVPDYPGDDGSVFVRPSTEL

D(1A) dopamine receptor = D(1A) dopamine receptor (Homo sapiens, UniProt P21728); type: functional, cell-based
[2] = molecular target: T2, Alpha-1A adrenergic receptor (Homo sapiens, UniProt P35348); type: functional, cell-based
T2 sequence (P35348 whole entry): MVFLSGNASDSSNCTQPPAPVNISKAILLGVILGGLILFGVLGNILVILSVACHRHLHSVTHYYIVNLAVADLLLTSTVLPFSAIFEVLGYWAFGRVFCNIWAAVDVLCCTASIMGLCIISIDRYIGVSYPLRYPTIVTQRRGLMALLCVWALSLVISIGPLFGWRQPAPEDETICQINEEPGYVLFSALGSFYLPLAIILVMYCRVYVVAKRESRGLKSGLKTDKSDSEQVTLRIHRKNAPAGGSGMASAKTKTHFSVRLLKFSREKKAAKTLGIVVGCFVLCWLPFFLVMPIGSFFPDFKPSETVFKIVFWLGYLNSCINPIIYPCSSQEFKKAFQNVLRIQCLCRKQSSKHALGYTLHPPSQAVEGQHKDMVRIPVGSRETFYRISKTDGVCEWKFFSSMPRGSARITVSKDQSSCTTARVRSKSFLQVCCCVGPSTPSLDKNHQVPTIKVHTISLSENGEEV

Histamine H2 receptor = Histamine H2 receptor (Homo sapiens, UniProt P25021); type: functional, cell-based
[3] = molecular target: Beta-1 adrenergic receptor (Homo sapiens, UniProt P08588); type: functional
Adenosine receptor A1 = molecular target: T3, Adenosine receptor A1 (Homo sapiens, UniProt P30542)
T3 sequence (P30542 whole entry): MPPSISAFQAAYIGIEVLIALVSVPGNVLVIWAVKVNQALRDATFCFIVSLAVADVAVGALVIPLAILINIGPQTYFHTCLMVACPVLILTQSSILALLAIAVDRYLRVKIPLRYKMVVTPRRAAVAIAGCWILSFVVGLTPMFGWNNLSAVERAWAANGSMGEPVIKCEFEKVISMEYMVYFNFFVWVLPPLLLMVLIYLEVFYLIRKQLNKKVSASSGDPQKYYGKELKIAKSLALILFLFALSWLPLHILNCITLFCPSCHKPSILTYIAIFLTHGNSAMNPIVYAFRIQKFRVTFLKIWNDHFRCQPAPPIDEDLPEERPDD

[4] = molecular target: T4, Amine oxidase [flavin-containing] A (Homo sapiens, UniProt P21397); type: functional
T4 sequence (P21397 whole entry): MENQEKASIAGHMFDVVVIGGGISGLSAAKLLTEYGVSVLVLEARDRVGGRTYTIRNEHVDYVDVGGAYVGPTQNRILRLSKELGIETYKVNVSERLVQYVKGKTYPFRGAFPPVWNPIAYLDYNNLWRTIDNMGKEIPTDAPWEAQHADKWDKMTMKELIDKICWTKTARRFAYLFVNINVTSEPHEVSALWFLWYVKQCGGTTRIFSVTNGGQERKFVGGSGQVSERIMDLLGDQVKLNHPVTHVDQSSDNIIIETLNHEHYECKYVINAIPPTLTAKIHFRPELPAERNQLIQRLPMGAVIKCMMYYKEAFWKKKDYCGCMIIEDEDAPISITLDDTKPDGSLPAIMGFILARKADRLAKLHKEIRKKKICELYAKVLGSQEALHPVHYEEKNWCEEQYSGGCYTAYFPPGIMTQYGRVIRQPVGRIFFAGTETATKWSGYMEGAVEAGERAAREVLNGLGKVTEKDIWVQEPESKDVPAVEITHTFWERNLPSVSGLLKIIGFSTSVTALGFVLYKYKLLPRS

[5] = molecular target: Neuronal acetylcholine receptor subunit alpha-4 (Homo sapiens, UniProt P43681)
[6] = molecular target: Voltage-dependent L-type calcium channel subunit alpha-1C (Rattus norvegicus, UniProt P22002); type: functional
[7] = molecular target: Kappa-type opioid receptor (Homo sapiens, UniProt P41145)
[8] = molecular target: T5, Gastrin/cholecystokinin type B receptor (Homo sapiens, UniProt P32239)
T5 sequence (P32239 whole entry): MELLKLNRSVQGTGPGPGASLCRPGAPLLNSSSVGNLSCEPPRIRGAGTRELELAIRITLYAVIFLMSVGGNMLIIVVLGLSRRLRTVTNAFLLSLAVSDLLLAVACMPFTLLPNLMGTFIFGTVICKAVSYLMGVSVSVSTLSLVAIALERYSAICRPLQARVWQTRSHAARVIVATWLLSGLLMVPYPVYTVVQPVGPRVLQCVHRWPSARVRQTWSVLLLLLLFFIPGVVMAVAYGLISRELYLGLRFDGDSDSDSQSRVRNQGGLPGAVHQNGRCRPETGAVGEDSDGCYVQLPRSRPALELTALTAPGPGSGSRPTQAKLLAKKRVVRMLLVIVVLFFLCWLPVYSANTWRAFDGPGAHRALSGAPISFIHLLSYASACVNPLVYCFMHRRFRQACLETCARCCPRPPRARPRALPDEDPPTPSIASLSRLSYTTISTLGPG

[9] = molecular target: cGMP-inhibited 3',5'-cyclic phosphodiesterase 3A (Homo sapiens, UniProt Q14432); type: functional
Also: assay procedure not described here.

Voltage-dependent L-type calcium channel subunit alpha-1C, sequence (P22002 whole entry): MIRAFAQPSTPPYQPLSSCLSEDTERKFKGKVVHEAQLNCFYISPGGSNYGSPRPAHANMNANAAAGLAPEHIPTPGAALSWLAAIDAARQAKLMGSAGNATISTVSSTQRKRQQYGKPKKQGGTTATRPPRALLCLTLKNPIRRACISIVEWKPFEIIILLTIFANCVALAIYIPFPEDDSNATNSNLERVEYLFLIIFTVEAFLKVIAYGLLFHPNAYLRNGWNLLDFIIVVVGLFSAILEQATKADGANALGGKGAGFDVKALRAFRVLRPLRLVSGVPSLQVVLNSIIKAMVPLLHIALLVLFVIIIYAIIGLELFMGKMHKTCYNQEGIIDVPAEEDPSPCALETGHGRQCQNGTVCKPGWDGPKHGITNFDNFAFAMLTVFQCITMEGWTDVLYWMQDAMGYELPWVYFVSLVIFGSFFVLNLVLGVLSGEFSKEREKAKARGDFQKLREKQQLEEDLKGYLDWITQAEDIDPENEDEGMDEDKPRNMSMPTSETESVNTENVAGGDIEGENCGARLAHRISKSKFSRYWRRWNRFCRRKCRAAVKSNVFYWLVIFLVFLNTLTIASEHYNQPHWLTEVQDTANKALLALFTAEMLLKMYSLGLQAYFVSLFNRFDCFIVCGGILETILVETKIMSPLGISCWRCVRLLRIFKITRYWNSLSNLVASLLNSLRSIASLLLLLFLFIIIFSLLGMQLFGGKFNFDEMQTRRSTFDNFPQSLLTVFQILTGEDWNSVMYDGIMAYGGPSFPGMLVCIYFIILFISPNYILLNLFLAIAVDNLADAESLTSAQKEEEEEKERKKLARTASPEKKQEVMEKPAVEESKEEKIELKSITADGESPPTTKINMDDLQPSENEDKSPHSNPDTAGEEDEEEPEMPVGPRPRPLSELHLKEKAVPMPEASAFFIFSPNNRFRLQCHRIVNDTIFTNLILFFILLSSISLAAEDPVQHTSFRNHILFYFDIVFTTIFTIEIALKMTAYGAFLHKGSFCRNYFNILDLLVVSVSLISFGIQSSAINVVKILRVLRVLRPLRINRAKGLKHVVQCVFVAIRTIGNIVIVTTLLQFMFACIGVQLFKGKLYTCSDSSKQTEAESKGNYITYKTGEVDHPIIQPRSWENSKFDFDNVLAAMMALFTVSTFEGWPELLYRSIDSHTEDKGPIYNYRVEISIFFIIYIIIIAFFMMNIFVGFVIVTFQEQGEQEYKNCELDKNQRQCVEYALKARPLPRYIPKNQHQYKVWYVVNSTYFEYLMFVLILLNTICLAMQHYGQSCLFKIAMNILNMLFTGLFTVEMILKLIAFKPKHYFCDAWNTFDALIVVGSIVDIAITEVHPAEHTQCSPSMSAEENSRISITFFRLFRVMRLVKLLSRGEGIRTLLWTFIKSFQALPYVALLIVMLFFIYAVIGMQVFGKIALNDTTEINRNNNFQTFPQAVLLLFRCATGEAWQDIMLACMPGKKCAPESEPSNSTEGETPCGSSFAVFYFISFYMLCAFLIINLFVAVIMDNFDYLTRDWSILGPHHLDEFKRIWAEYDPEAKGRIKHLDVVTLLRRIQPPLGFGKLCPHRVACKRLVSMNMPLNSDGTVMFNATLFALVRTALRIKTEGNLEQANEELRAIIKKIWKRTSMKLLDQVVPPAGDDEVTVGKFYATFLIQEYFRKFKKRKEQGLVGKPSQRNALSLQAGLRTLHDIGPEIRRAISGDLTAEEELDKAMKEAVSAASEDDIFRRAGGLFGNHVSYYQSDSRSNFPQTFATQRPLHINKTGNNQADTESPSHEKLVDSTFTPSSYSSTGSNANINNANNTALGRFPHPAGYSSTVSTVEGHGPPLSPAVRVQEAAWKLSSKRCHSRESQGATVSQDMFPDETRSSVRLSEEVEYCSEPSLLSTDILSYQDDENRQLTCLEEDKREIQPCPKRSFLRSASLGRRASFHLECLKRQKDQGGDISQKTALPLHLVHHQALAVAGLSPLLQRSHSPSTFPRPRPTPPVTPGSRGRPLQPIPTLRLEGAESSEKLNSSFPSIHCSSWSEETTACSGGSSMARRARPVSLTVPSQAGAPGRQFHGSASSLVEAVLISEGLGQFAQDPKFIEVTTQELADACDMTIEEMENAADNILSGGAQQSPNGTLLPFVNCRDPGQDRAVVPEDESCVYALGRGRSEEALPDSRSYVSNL
D(1A) dopamine receptor, sequence (P21728 whole entry): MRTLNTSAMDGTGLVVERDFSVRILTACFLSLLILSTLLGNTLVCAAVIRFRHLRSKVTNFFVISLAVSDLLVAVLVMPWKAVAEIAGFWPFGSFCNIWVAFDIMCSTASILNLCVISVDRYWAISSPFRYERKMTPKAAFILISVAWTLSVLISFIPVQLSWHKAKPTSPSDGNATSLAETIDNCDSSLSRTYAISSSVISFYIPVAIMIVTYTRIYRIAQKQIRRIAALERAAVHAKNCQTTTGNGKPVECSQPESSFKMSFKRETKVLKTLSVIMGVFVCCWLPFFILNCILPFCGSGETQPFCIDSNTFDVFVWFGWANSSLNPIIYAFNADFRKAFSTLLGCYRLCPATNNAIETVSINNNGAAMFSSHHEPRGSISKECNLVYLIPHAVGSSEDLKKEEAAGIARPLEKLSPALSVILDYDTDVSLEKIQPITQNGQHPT
Histamine H2 receptor, sequence (P25021 whole entry): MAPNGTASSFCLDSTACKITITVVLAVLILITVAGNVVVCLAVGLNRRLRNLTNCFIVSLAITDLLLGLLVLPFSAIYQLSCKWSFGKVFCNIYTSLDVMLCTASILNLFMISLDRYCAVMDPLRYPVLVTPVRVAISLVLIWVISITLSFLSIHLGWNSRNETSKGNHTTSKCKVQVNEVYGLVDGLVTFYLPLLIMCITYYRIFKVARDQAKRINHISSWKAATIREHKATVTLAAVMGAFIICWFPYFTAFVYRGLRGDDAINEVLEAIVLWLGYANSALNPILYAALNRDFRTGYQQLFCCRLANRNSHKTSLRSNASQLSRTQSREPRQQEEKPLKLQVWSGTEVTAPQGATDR
cGMP-inhibited 3',5'-cyclic phosphodiesterase 3A, sequence (Q14432 whole entry): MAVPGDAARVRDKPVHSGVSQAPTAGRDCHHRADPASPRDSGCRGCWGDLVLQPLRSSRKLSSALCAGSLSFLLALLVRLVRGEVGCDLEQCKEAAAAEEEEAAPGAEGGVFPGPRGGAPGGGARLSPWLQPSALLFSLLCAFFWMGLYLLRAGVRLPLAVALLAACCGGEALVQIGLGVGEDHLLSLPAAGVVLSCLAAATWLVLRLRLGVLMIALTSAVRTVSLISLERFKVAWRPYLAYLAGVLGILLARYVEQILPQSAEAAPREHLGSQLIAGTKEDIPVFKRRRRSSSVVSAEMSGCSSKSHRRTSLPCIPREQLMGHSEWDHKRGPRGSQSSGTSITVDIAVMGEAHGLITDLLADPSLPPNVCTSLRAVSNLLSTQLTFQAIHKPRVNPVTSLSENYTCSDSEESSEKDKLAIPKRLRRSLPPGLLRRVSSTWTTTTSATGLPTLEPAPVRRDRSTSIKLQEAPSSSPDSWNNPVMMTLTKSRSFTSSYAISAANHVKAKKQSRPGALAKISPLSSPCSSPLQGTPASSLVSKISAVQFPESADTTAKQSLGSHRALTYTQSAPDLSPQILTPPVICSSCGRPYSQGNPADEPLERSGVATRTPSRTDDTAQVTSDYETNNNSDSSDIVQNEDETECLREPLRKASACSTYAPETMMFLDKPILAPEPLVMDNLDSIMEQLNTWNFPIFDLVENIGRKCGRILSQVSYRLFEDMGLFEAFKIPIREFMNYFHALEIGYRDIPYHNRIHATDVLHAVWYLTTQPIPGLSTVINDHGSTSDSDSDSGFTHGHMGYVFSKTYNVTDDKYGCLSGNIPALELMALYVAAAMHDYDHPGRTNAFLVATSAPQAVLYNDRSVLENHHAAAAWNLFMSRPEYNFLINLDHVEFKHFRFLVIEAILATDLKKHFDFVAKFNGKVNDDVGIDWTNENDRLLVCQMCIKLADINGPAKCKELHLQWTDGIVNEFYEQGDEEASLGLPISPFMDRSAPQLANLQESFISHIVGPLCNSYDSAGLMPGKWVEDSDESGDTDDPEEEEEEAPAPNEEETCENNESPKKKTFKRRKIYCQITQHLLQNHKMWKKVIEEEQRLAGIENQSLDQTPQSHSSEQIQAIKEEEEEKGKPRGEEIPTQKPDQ
Histamine H3 receptor, sequence (Q9Y5N1 whole entry): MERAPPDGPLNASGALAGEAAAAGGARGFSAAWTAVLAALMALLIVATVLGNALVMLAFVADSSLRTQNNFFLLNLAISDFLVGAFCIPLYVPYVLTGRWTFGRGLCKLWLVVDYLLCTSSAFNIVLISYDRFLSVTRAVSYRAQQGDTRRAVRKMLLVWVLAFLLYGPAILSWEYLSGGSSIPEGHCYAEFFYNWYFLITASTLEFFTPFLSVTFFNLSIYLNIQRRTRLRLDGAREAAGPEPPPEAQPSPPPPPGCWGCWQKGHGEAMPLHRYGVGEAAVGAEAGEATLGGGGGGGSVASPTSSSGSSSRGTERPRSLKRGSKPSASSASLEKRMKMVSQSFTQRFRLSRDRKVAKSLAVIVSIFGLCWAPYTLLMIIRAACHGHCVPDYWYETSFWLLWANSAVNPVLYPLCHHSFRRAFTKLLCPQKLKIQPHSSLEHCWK
D(3) dopamine receptor, sequence (P35462 whole entry): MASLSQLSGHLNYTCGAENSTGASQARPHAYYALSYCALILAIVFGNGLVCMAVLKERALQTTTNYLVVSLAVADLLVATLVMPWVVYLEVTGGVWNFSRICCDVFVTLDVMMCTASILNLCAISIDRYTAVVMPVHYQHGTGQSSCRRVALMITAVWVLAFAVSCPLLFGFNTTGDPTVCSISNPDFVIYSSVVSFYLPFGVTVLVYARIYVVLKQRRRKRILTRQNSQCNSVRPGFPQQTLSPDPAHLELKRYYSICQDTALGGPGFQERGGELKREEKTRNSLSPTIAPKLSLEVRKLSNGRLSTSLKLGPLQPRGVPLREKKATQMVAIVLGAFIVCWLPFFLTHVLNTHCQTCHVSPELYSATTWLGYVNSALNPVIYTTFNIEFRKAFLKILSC

How did the AC50 (Histamine H3 receptor) turn out when `Nc1cc(-c2ccncc2)c[nH]c1=O` [INAMRINONE] was run?
Its AC50 is over 10 µM.

What about the AC50 (D(3) dopamine receptor) of the same compound?
The AC50 was over 30 µM.

What about the AC50 [1] of the same compound?
Its AC50 is over 30 µM.

And the AC50 (D(1A) dopamine receptor)?
The AC50 was over 10 µM.

What about the AC50 [2] of the same compound?
Its AC50 is over 30 µM.

What about the AC50 (Histamine H2 receptor) of the same compound?
Its AC50 is over 10 µM.

And the AC50 [3]?
Its AC50 is over 10 µM.

And the AC50 (Adenosine receptor A1)?
The AC50 was over 30 µM.

And the AC50 [4]?
Its AC50 is over 10 µM.

And the AC50 [5]?
The AC50 was over 10 µM.

And the AC50 [6]?
The AC50 was over 10 µM.

And the AC50 [7]?
Its AC50 is over 10 µM.

What about the AC50 [8] of the same compound?
Its AC50 is over 30 µM.

What does the source list for `C[N@+]1(CCF)[C@@H]2CC[C@H]1C[C@@H](OC(=O)C(O)(c1ccccc1)c1ccccc1)C2`?
AC50 (Histamine H3 receptor): > 30 µM; AC50 (D(3) dopamine receptor): > 30 µM; AC50 [1]: > 10 µM; AC50 [9]: > 30 µM; AC50 (D(1A) dopamine receptor): > 30 µM; AC50 [2]: > 30 µM; AC50 (Histamine H2 receptor): > 30 µM; AC50 [3]: > 30 µM; AC50 (Adenosine receptor A1): > 30 µM; AC50 [4]: > 30 µM; AC50 [5]: > 30 µM; AC50 [6]: > 30 µM; AC50 [7]: 26 µM; AC50 [8]: > 30 µM

Which AC50 (Histamine H3 receptor) does the source give for `COc1ccc2nc3cc(Cl)ccc3c(Nc3cc(CN4CCCC4)c(O)c(CN4CCCC4)c3)c2n1` [PYRONARIDINE] here?
Its AC50 is over 30 µM.

And the AC50 (D(3) dopamine receptor)?
The AC50 was 21 µM.

What about the AC50 [1] of the same compound?
The AC50 was over 30 µM.

And the AC50 [9]?
Its AC50 is 5.7 µM.

What about the AC50 (D(1A) dopamine receptor) of the same compound?
Its AC50 is over 30 µM.

What about the AC50 [2] of the same compound?
Its AC50 is over 30 µM.

What about the AC50 (Histamine H2 receptor) of the same compound?
Its AC50 is over 30 µM.

What about the AC50 [3] of the same compound?
Its AC50 is over 30 µM.

And the AC50 (Adenosine receptor A1)?
The AC50 was over 30 µM.

And the AC50 [4]?
The AC50 was over 30 µM.

What about the AC50 [5] of the same compound?
Its AC50 is 26 µM.

What about the AC50 [6] of the same compound?
The AC50 was over 30 µM.

What about the AC50 [7] of the same compound?
The AC50 was 15 µM.

What about the AC50 [8] of the same compound?
The AC50 was over 30 µM.

For `CCCCCC(=O)O[C@]1(C(C)=O)CC[C@H]2[C@@H]3CCC4=CC(=O)CC[C@]4(C)[C@H]3CC[C@@]21C` [HYDROXYPROGESTERONE CAPROATE], which AC50 (Histamine H3 receptor) is on record?
Its AC50 is over 30 µM.

And the AC50 (D(3) dopamine receptor)?
The AC50 was over 30 µM.

What about the AC50 [1] of the same compound?
The AC50 was over 30 µM.

What about the AC50 [9] of the same compound?
Its AC50 is 30 µM.

And the AC50 (D(1A) dopamine receptor)?
Its AC50 is over 30 µM.

What about the AC50 [2] of the same compound?
The AC50 was over 30 µM.

What about the AC50 (Histamine H2 receptor) of the same compound?
Its AC50 is over 30 µM.

And the AC50 [3]?
Its AC50 is over 30 µM.

And the AC50 (Adenosine receptor A1)?
Its AC50 is over 30 µM.

And the AC50 [4]?
Its AC50 is over 30 µM.

What about the AC50 [5] of the same compound?
The AC50 was over 30 µM.

And the AC50 [6]?
The AC50 was over 30 µM.

What about the AC50 [7] of the same compound?
Its AC50 is over 30 µM.

And the AC50 [8]?
The AC50 was over 30 µM.

`NC1CCN(c2nc3c(cc2F)c(=O)c(C(=O)O)cn3-c2ccc(F)cc2F)C1` (stereo unspecified) [TOSUFLOXACIN] was tested. Which AC50 (Histamine H3 receptor) did it give?
The AC50 was over 30 µM.

What about the AC50 (D(3) dopamine receptor) of the same compound?
Its AC50 is over 30 µM.

And the AC50 [1]?
The AC50 was over 10 µM.

And the AC50 [9]?
The AC50 was over 30 µM.

And the AC50 (D(1A) dopamine receptor)?
Its AC50 is over 30 µM.

And the AC50 [2]?
The AC50 was over 30 µM.

And the AC50 (Histamine H2 receptor)?
The AC50 was over 30 µM.

And the AC50 [3]?
Its AC50 is over 30 µM.

What about the AC50 (Adenosine receptor A1) of the same compound?
Its AC50 is over 30 µM.

And the AC50 [4]?
The AC50 was over 30 µM.

What about the AC50 [5] of the same compound?
Its AC50 is over 30 µM.

And the AC50 [6]?
The AC50 was over 30 µM.

And the AC50 [7]?
The AC50 was over 30 µM.

And the AC50 [8]?
The AC50 was over 30 µM.

Which results are given for `CCN(CC)CCNC(=O)c1cc(S(C)(=O)=O)ccc1OC` [TIAPRIDE]?
AC50 (Histamine H3 receptor): > 30 µM; AC50 (D(3) dopamine receptor): 0.36 µM; AC50 [1]: > 30 µM; AC50 [9]: > 30 µM; AC50 (D(1A) dopamine receptor): > 30 µM; AC50 [2]: > 30 µM; AC50 (Histamine H2 receptor): > 30 µM; AC50 [3]: > 30 µM; AC50 (Adenosine receptor A1): > 30 µM; AC50 [4]: > 30 µM; AC50 [5]: > 30 µM; AC50 [6]: > 30 µM; AC50 [7]: > 30 µM; AC50 [8]: > 30 µM

`CC(=O)O[C@H](CC(=O)[O-])C[N+](C)(C)C` [ACETYLCARNITINE] was tested. Which AC50 (Histamine H3 receptor) did it give?
The AC50 was over 30 µM.

And the AC50 (D(3) dopamine receptor)?
The AC50 was over 30 µM.

What about the AC50 [1] of the same compound?
The AC50 was over 10 µM.

And the AC50 [9]?
Its AC50 is over 30 µM.

What about the AC50 (D(1A) dopamine receptor) of the same compound?
The AC50 was over 30 µM.

What about the AC50 [2] of the same compound?
Its AC50 is over 30 µM.

And the AC50 (Histamine H2 receptor)?
Its AC50 is over 30 µM.

And the AC50 [3]?
Its AC50 is over 30 µM.

What about the AC50 (Adenosine receptor A1) of the same compound?
The AC50 was over 30 µM.

And the AC50 [5]?
Its AC50 is over 30 µM.

And the AC50 [6]?
The AC50 was over 30 µM.

And the AC50 [7]?
Its AC50 is over 30 µM.

And the AC50 [8]?
The AC50 was over 30 µM.
